Test results taken from patent US4755385A, “Oral pharmaceutical preparations containing 9-deoxo-11-deoxy-9,11-[imino[2-(2-methoxyethoxy)-ethylidene]-oxy]-(9S)-e rythromycin” (priority 1985, dated 1988).
Like-named read-outs stand apart in the source and are kept apart here.

Key:
[1] = Stability of the active substance as a function of pH (% intact substance)
[2] = DE-A1-2,515,075; particularly when given dissolved, e.g. intravenously; cited from earlier work

CC[C@H]1OC(=O)[C@H](C)[C@@H](O[C@H]2C[C@@](C)(OC)[C@@H](O)[C@H](C)O2)[C@H](C)[C@@H](O[C@@H]2O[C@H](C)C[C@H](N(C)C)[C@H]2O)[C@](C)(O)C[C@@H](C)[C@@H]2NC(COCCOC)O[C@H]([C@H]2C)[C@]1(C)O (stereo partly drawn) [AS-E 136, 9-deoxo-11-deoxy-9,11-[imino[2-(2-methoxyethoxy)-ethylidene]oxy]-(9S)-erythromycin]
stability in acidic media / gastric juices ([1]; gastric juices (pH 1.0 to 2.0)): usually destroyed in a short time | remaining at 0.5 h ([1]; pH 1): 10% | remaining at 0.5 h ([1]; pH 6): 20% | remaining at 0.5 h ([1]; pH 6.5): 20% | remaining at 0.5 h ([1]; pH 7): 50% | remaining at 0.5 h ([1]; pH 7.5): 80% | remaining at 0.5 h ([1]; pH 8): 95% | chemical stability around pH 5.5 ([1]; pH around 5.5): retains its susceptibility to hydrolysis unchanged | antibacterial activity [2]: particularly good antibacterial activity

CC[C@H]1OC(=O)[C@H](C)[C@@H](O[C@H]2C[C@@](C)(OC)[C@@H](O)[C@H](C)O2)[C@H](C)[C@@H](O[C@@H]2O[C@H](C)C[C@H](N(C)C)[C@H]2O)[C@](C)(O)C[C@@H](C)C(=O)[C@H](C)[C@@H](O)[C@]1(C)O [erythromycin, reference compound]
chemical stability around pH 5.5: chemically stable long enough to be resorbed | remaining at 0.5 h ([1]; pH 1.3): 30% | remaining at 1 h ([1]; pH 1.3): 10% | remaining at 0.5 h ([1]; pH 4.5): 55% | remaining at 1 h ([1]; pH 4.5): 50% | remaining at 0.5 h ([1]; pH 5.5): 100% | remaining at 1 h ([1]; pH 5.5): 85%
